The record followed here is PubChem BioAssay (NCI).

SMILES strings stand for the structures.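 In this assay, cells in 96-well plates receive the compound at five concentrations for 48 hours. Endpoints are linearly interpolated between the surrounding concentrations. Definition used: TGI = concentration required for complete inhibition of growth.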

Some test systems named below: NCI-H460 lung; NCI/ADR-RES ovarian; BT-549 breast; SK-MEL-2 melanoma; DU-145 prostate; ACHN renal; MCF7 breast; A549 NSCLC; RPMI-8226 leukemia; HS 578T breast; MDA-N; HCT-15 colon; OVCAR-3 ovarian; SF-268 CNS; CCRF-CEM leukemia; HCT-116 colon; CAKI-1 renal.
Common to all, as to assay: NCI anticancer screen, dose series, 48 h

With `COc1ccc2c(-c3csc(-c4c[nH]c5ccc(Br)cc45)n3)c[nH]c2c1`, the TGI with NCI-H460 lung, in the test with NCI/ADR-RES ovarian, in the test on BT-549 breast, in the test with SK-MEL-2 melanoma, in the test on DU-145 prostate and with ACHN renal was above 100 µM throughout. Moreover, the TGI with MCF7 breast was above 100 µM; with A549 NSCLC it was above 100 µM; with RPMI-8226 leukemia, above 100 µM; in the test with HS 578T breast, above 100 µM; with MDA-N, 30.8 µM; with HCT-15 colon, above 100 µM. Moreover, the TGI in the test with OVCAR-3 ovarian was above 100 µM; in the test on SF-268 CNS, 73.4 µM; with CCRF-CEM leukemia it was above 100 µM; in the test with HCT-116 colon it was above 100 µM; in the test with CAKI-1 renal, above 100 µM.

Turning to `Clc1ccc(OCC2NC3CCC2CC3)cn1` (stereo not drawn), the TGI in the test on NCI-H460 lung was 55.1 µM; in the test on NCI/ADR-RES ovarian, above 100 µM; with BT-549 breast, above 100 µM; with SK-MEL-2 melanoma, 33.4 µM; in the test on DU-145 prostate it was above 100 µM; with ACHN renal it was above 100 µM. Also, the TGI is 34.8 µM with MCF7 breast; above 100 µM in the test with A549 NSCLC; 32.5 µM in the test on RPMI-8226 leukemia; above 100 µM with HS 578T breast; 33.5 µM with MDA-N; 45.5 µM in the test with HCT-15 colon. In addition, the TGI in the test with OVCAR-3 ovarian is above 100 µM; with SF-268 CNS, above 100 µM; in the test with CCRF-CEM leukemia, 77 µM; in the test on HCT-116 colon, 35.9 µM; with CAKI-1 renal, above 100 µM.

For `O=C1Cc2c(-c3cccs3)cc(-c3ccccc3)nc2-c2ccccc2N1`, the TGI in the test on NCI-H460 lung, in the test on NCI/ADR-RES ovarian, in the test with BT-549 breast, with SK-MEL-2 melanoma, in the test on DU-145 prostate and with ACHN renal was above 100 µM each time. In addition, the TGI in the test on MCF7 breast was above 100 µM; with A549 NSCLC, above 100 µM; in the test on RPMI-8226 leukemia, above 100 µM; in the test with HS 578T breast it was 17.2 µM; with MDA-N it was above 100 µM; in the test with HCT-15 colon, above 100 µM. For the same compound, the TGI in the test on OVCAR-3 ovarian is above 100 µM; in the test with SF-268 CNS, 56.8 µM; in the test with CCRF-CEM leukemia it was above 100 µM; with HCT-116 colon it was above 100 µM; in the test on CAKI-1 renal, above 100 µM.

For `CN(C)c1cccc(-c2cc(=S)c3cc4c(cc3[nH]2)OCO4)c1`, the TGI in the test with NCI-H460 lung, in the test on NCI/ADR-RES ovarian, in the test on BT-549 breast, in the test with SK-MEL-2 melanoma, in the test with DU-145 prostate and with ACHN renal was above 100 µM in each case. Also, the TGI was above 100 µM with MCF7 breast; above 100 µM in the test with A549 NSCLC; above 100 µM in the test on RPMI-8226 leukemia; above 100 µM in the test on HS 578T breast; 11.8 µM in the test on MDA-N; above 100 µM with HCT-15 colon. Also, the TGI with OVCAR-3 ovarian, in the test on SF-268 CNS, with CCRF-CEM leukemia, in the test with HCT-116 colon and in the test on CAKI-1 renal was above 100 µM each time.

Consider `Clc1ccc(Cc2nc3ccccc3o2)cc1`, for which the TGI in the test on NCI-H460 lung, in the test with NCI/ADR-RES ovarian, in the test on BT-549 breast, in the test on SK-MEL-2 melanoma, in the test with DU-145 prostate and in the test on ACHN renal was above 100 µM in each case. Further, the TGI in the test with MCF7 breast, in the test with A549 NSCLC, with RPMI-8226 leukemia, in the test with HS 578T breast, in the test with MDA-N and in the test on HCT-15 colon was above 100 µM each time. In addition, the TGI with OVCAR-3 ovarian, in the test with SF-268 CNS, with CCRF-CEM leukemia, in the test with HCT-116 colon and with CAKI-1 renal was above 100 µM each time.

As for `COC1=C(C(c2cc(OC)c(OC)c(OC)c2)c2cc3c(cc2OC)OCO3)C(=O)OC1` (stereo not drawn), the TGI was above 84.7 µM in the test with NCI-H460 lung; 26.2 µM in the test with NCI/ADR-RES ovarian; above 100 µM in the test with BT-549 breast; above 100 µM in the test with SK-MEL-2 melanoma; 70.5 µM in the test on DU-145 prostate; above 79.3 µM in the test with ACHN renal. The TGI in the test with MCF7 breast is above 82.3 µM; with A549 NSCLC it was above 67.1 µM; in the test with RPMI-8226 leukemia it was above 100 µM; with HS 578T breast, above 58.4 µM; with MDA-N it was 17.1 µM; with HCT-15 colon, above 100 µM. In addition, the TGI is above 61 µM in the test on OVCAR-3 ovarian; above 79.8 µM with SF-268 CNS; above 68.8 µM in the test on CCRF-CEM leukemia; 33.5 µM with HCT-116 colon; above 100 µM in the test on CAKI-1 renal.

`CC(C)=CCC[C@@H](C)[C@H]1CC[C@@]2(C)[C@@H]3CC[C@H]4C(C)(C)[C@@H](O)CC[C@@]45C[C@@]35CC[C@]12C`: the TGI in the test with NCI-H460 lung was 39.8 µM; in the test with NCI/ADR-RES ovarian, 62.1 µM; in the test with BT-549 breast, 55.6 µM; with SK-MEL-2 melanoma, above 100 µM; in the test with DU-145 prostate it was above 100 µM; in the test with ACHN renal, above 73.1 µM. Also, the TGI in the test on MCF7 breast was above 100 µM; with A549 NSCLC it was 48.1 µM; in the test on RPMI-8226 leukemia it was above 88.7 µM; in the test with HS 578T breast, above 100 µM; with MDA-N, above 100 µM; in the test with HCT-15 colon, above 100 µM. In addition, the TGI in the test on OVCAR-3 ovarian is above 100 µM; in the test with SF-268 CNS it was above 76.4 µM; with CCRF-CEM leukemia, 63.5 µM; in the test on HCT-116 colon it was above 77.9 µM; in the test with CAKI-1 renal, above 100 µM.

For `CC(C)(C)N(Cc1ccccc1)C(=O)/C=C\S(=O)c1ccccc1` (stereo not drawn), the TGI turned out to be 16 µM in the test on NCI-H460 lung; 13.7 µM in the test with NCI/ADR-RES ovarian; 12.9 µM in the test on BT-549 breast; 8.79 µM in the test on SK-MEL-2 melanoma; 13.6 µM in the test with DU-145 prostate; 15.9 µM with ACHN renal. Also, the TGI with MCF7 breast was determined as 16.4 µM; with A549 NSCLC, 25.4 µM; with RPMI-8226 leukemia, 7.78 µM; in the test with HS 578T breast it was 7.19 µM; in the test on MDA-N, 8.64 µM; in the test on HCT-15 colon it was 18 µM. For the same compound, the TGI in the test on OVCAR-3 ovarian is 7.41 µM; in the test with SF-268 CNS, 6.96 µM; in the test on CCRF-CEM leukemia, above 44.9 µM; with HCT-116 colon it was 7.05 µM; with CAKI-1 renal it was 18.4 µM.

Regarding `O=C1C2C3C4C1C1C2[C@H](OCc2ccccc2)C3C1[C@H]4OCc1ccccc1` (stereo partly drawn), the TGI in the test on NCI-H460 lung was above 100 µM; in the test on NCI/ADR-RES ovarian, 54.8 µM; in the test with BT-549 breast, above 100 µM; in the test with SK-MEL-2 melanoma, above 100 µM; in the test on DU-145 prostate it was above 100 µM; with ACHN renal it was above 100 µM. Moreover, the TGI in the test with MCF7 breast was above 100 µM; in the test on A549 NSCLC it was above 100 µM; with RPMI-8226 leukemia, above 100 µM; in the test with HS 578T breast it was 60.4 µM; in the test with MDA-N, above 100 µM; with HCT-15 colon it was 57.9 µM. The TGI in the test with OVCAR-3 ovarian, with SF-268 CNS, in the test on CCRF-CEM leukemia, with HCT-116 colon and with CAKI-1 renal was above 100 µM throughout.
